What was measured:
Experiment in all cases: relative viability (nuclei count vs DMSO), 5 days (fraction); higher = more cells survive
Bortezomib + Navitoclax = compound: CC(C)C[C@H](NC(=O)[C@H](Cc1ccccc1)NC(=O)c1cnccn1)B(O)O [Bortezomib] + CC1(C)CCC(c2ccc(Cl)cc2)=C(CN2CCN(c3ccc(C(=O)NS(=O)(=O)c4ccc(N[C@H](CCN5CCOCC5)CSc5ccccc5)c(S(=O)(=O)C(F)(F)F)c4)cc3)CC2)C1 [Navitoclax] (partner 0.5 µM)
Outline: (§1)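 After 5 days of treatment, lung cancer cells in 1536-well plates were fixed and stained in a single step (final 0.05% Triton X-100, 1% formaldehyde, 1 ug/ml Hoechst) and their nuclei counted on 4× images. Treatment had been applied by pin tool the day after seeding as one drug alone or as a fixed anchor-drug dose with five library-drug doses (not always all listed) in √10 steps. Relative viability is the nuclei count of treated wells divided by that of vehicle wells, and values are medians of duplicate plates.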

Bortezomib + Tozasertib = compound: CC(C)C[C@H](NC(=O)[C@H](Cc1ccccc1)NC(=O)c1cnccn1)B(O)O [Bortezomib] + Cc1cc(Nc2cc(N3CCN(C)CC3)nc(Sc3ccc(NC(=O)C4CC4)cc3)n2)n[nH]1 [Tozasertib] (partner 0.1 µM)
Outline: as §1

[1] = compound: CC1=CC(=NN1)NC2=CC(=NC(=N2)/C=C/C3=CC=CC=C3)N4CCN(CC4)C + C[C@@H](Oc1cc(-c2cnn(C3CCNCC3)c2)cnc1N)c1c(Cl)ccc(F)c1Cl [Crizotinib] (partner 1 µM)
Outline: as §1

Bortezomib + Decitabine = compound: CC(C)C[C@H](NC(=O)[C@H](Cc1ccccc1)NC(=O)c1cnccn1)B(O)O [Bortezomib] + Nc1ncn([C@H]2C[C@H](O)[C@@H](CO)O2)c(=O)n1 [Decitabine] (partner 2 µM)
Outline: as §1

Cell Line | relative viability (Bortezomib + Navitoclax; first compound 0.0002 µM) | relative viability (Bortezomib + Navitoclax; first compound 0.000632 µM) | relative viability (Bortezomib + Navitoclax; first compound 0.002 µM) | relative viability (Bortezomib + Navitoclax; first compound 0.006325 µM) | relative viability (Bortezomib + Navitoclax; first compound 0.02 µM) | relative viability (Bortezomib + Tozasertib; first compound 0.0002 µM) | relative viability (Bortezomib + Tozasertib; first compound 0.002 µM) | relative viability (Bortezomib + Tozasertib; first compound 0.006325 µM) | relative viability (Bortezomib + Tozasertib; first compound 0.02 µM) | relative viability ([1]; first compound 0.08 µM) | relative viability ([1]; first compound 0.253 µM) | relative viability ([1]; first compound 0.8 µM) | relative viability ([1]; first compound 2.53 µM) | relative viability ([1]; first compound 8 µM) | relative viability (Bortezomib + Decitabine; first compound 0.0002 µM) | relative viability (Bortezomib + Decitabine; first compound 0.000632 µM) | relative viability (Bortezomib + Decitabine; first compound 0.002 µM) | relative viability (Bortezomib + Decitabine; first compound 0.006325 µM) | relative viability (Bortezomib + Decitabine; first compound 0.02 µM) | relative viability (Bortezomib + Tozasertib; first compound 0.000632 µM)
HCC-44 | 0.96 | 0.932 | 0.94 | 0.225 | 0.192 | 0.887 | 0.305 | 0.161 | 0.221 | 0.756 | 0.837 | 0.787 | 0.386 | 0.0992 | 0.965 | 0.965 | 0.961 | 0.953 | 0.258 | –
HCC-78 | 0.766 | 0.794 | 0.467 | 0.16 | 0.178 | 0.488 | 0.41 | 0.236 | 0.209 | 0.365 | 0.372 | 0.352 | 0.32 | 0.146 | 0.703 | 0.744 | 0.644 | 0.615 | 0.291 | 0.331
HCC-366 | 0.945 | 1.03 | 1.04 | 0.949 | 0.0281 | 0.13 | 0.094 | 0.0548 | 0.0273 | 0.6 | 0.628 | 0.357 | 0.0171 | 0.01 | 0.305 | 0.327 | 0.39 | 0.201 | 0.0383 | 0.115
HCC-827 | 1.05 | 1.03 | 0.768 | 0.979 | 0.0957 | 0.418 | 0.419 | 0.12 | 0.0981 | 0.91 | 0.999 | 0.877 | 0.636 | 0.381 | 0.35 | 0.376 | 0.346 | 0.327 | 0.296 | 0.447
HOP-62 | 1.17 | 1.05 | 0.747 | 0.243 | 0.074 | 0.354 | 0.292 | 0.0719 | 0.0538 | 0.985 | 0.963 | 0.979 | 0.706 | 0.229 | 0.232 | 0.204 | 0.223 | 0.106 | 0.0681 | 0.391
IA-LM | 1.07 | 0.865 | 0.994 | 0.0167 | 0.0073 | – | – | – | – | – | 0.899 | 0.884 | 0.38 | 0.0798 | – | – | – | – | – | –
LC-2-ad | 0.422 | – | 0.543 | 0.0995 | 0.0978 | 0.447 | 0.328 | 0.217 | 0.199 | 0.475 | 0.469 | 0.365 | 0.303 | 0.186 | 0.73 | 0.81 | 0.931 | 0.516 | 0.225 | 0.477
LCLC-97TM1 | 0.586 | 0.451 | 0.186 | 0.222 | 0.0968 | 0.289 | 0.25 | 0.131 | 0.14 | 0.381 | 0.352 | 0.292 | 0.152 | 0.078 | 0.245 | 0.238 | 0.21 | 0.0935 | 0.0627 | 0.204
LCLC-103H | – | – | – | – | – | – | 0.251 | 0.147 | 0.128 | 0.993 | 1.19 | 1.19 | 1.07 | 0.302 | 0.66 | 0.727 | 0.68 | 0.274 | 0.221 | 0.485
NCI-H358 | – | – | – | – | – | 0.101 | 0.103 | 0.0691 | 0.0756 | 0.607 | 0.478 | 0.264 | 0.14 | 0.11 | 0.204 | 0.207 | 0.191 | 0.0949 | 0.0871 | 0.114
NCI-H522 | – | – | – | – | – | 0.475 | 0.419 | 0.344 | 0.337 | – | – | – | – | – | 0.777 | 0.621 | 0.575 | 0.432 | 0.386 | 0.529
NCI-H661 | – | – | – | – | – | 0.367 | 0.341 | 0.287 | 0.201 | – | 1.23 | 1.08 | 0.945 | 0.383 | 0.553 | 0.553 | 0.529 | 0.395 | 0.204 | 0.355
NCI-H1299 | 0.981 | 0.988 | 1.01 | 0.397 | 0.142 | – | – | – | – | 0.951 | 0.938 | 0.938 | 0.442 | 0.222 | – | – | – | – | – | –
NCI-H1395 | 1.27 | 1.52 | 0.448 | 0.39 | 0.345 | 0.793 | 0.576 | 0.288 | 0.274 | – | – | – | – | – | 0.774 | 0.702 | 0.431 | 0.287 | 0.297 | 0.692
NCI-H1563 | – | – | – | – | – | – | – | – | – | 0.985 | 0.896 | 0.904 | 0.65 | 0.614 | – | – | – | – | – | –
NCI-H1623 | – | – | – | – | – | 0.425 | 0.46 | 0.316 | 0.199 | – | – | – | – | – | – | – | – | – | – | 0.52
NCI-H1648 | – | – | – | – | – | 0.439 | 0.262 | 0.453 | 0.257 | – | – | – | – | – | 0.516 | 0.444 | 0.366 | 0.453 | 0.292 | 0.396
NCI-H1703 | 1.21 | 1.01 | 0.188 | 0.139 | 0.085 | – | – | – | – | 0.636 | 0.597 | 0.339 | 0.101 | 0.0884 | – | – | – | – | – | –
NCI-H1792 | 0.622 | 0.582 | 0.638 | 0.633 | 0.582 | – | – | – | – | 0.942 | 0.982 | 0.966 | 0.815 | 0.165 | 0.473 | 0.581 | 0.664 | 0.286 | 0.0625 | –
NCI-H1793 | 0.418 | 0.463 | 0.599 | 0.409 | 0.149 | 0.316 | 0.444 | 0.252 | 0.102 | – | – | – | – | – | 0.492 | – | 0.507 | 0.334 | 0.146 | 0.299
NCI-H2228 | 1 | 1.05 | 0.368 | 0.0925 | 0.0601 | 0.232 | 0.251 | 0.0818 | 0.102 | 0.586 | 0.45 | 0.33 | 0.0992 | 0.0441 | – | – | – | – | – | 0.231
NCI-H2342 | – | – | – | – | – | 0.765 | 0.511 | 0.409 | 0.313 | – | – | – | – | – | 0.818 | 0.795 | 0.694 | 0.725 | 0.436 | 0.471
SW 900 | – | – | – | – | – | 0.522 | 0.184 | 0.103 | 0.14 | – | – | – | – | – | 0.347 | 0.423 | 0.227 | 0.206 | 0.284 | 0.544

From the supplement of paper PMC10307832
